Data: ChEMBL document CHEMBL3507680, “University of Dundee, Gates Library screen for HepG2 cell viability”

Test: Human HepG2 cell viability assay in 384 well format
Assay type: toxicity, cell-based
Design: dose 125 nL, time 70.5 hour; cytotoxicity at 70.5 h: concentration not given beside the values
Conditions: HepG2 cells, read-out: Inhibition

SMILES	cytotoxicity at 70.5 h [%]
Cc1nc2ccccc2n1Cc1cc(C(=O)N(C)C2CCOCC2)no1	12.4
COCC(=O)N1CCCn2c(CN3CCCC3=O)nnc2C1	-8.38
CN(C)C(=O)CN(C)C(=O)c1cccn1CCc1ccccc1	-3.57
CC(C)(C)n1cc(C(=O)N2CCN(Cc3cccnc3)CC2)cn1	-7.69
CC(C1CC1)N(C)Cc1nnc(-c2ccc(Br)s2)o1 (stereo not drawn)	-2.75
O=C(O)c1ccc2c(CN3CCOCC3)c[nH]c2c1	32.5
CCNC(=O)[C@@H]1C[C@@H](N)CN1C(=O)c1[nH]c2ccccc2c1CC	18
CCc1cc(N2CCCNCC2)n2nc(C)c(C)c2n1	-5.51
CNS(=O)(=O)CCCN1CCN(C(C)c2cccnc2)CC1 (stereo not drawn)	18.3
c1ccc(-n2cc(CNCC3CCCN3c3cccnn3)nn2)cc1 (stereo not drawn)	-1.58
CCN1CCN(C(=O)NC(C)c2noc(-c3ccccc3)n2)CC1 (stereo not drawn)	-6.34
CO[C@H]1CN(C(=O)c2ccc3oc(C)cc3c2)CC[C@@]12CCCO2	-13.4
Cc1cc(F)ccc1NCC(=O)NCC(F)(F)F	0.946
O=S(=O)(c1cn[nH]c1)N1CCC(O)(CN2CCOCC2)C1 (stereo not drawn)	4.95
Cc1cnn(CC2CCCN2Cc2c(C)noc2C)c1 (stereo not drawn)	-3.04
Cc1cccc(CNC(=O)CC2CCN(C(=O)C(C)C)CC2)n1	6.37
Cn1ncc(C(=O)N2CCCC(n3cccn3)C2)c1C1CC1 (stereo not drawn)	-4.62
CN(CC(=O)N1CCCCC1Cn1cccn1)C1CC1 (stereo not drawn)	4.49
CCc1ccc(NC(=O)c2ncc(C(N)=O)cc2Cl)cc1F	-107
CCC(CO)N(Cc1ccco1)C(=O)c1sccc1NC(C)=O (stereo not drawn)	-5.95
c1cc(CCN2CCC(c3n[nH]c(C4CC4)n3)CC2)ccn1	11.7
COCc1noc(CCNC(=O)c2cc(C)c(C)[nH]c2=O)n1	-7.79
O=C([C@H]1CCS(=O)(=O)[C@@H]2CN(Cc3ccc(F)cc3)C[C@H]12)N1CCCC1	-4.67

SMILES	cytotoxicity at 70.5 h [%]
CN1CCN(C[C@@H]2CN(C(=O)c3ccccc3C#N)C[C@@H]2CO)CC1	13.9
COc1ccc(CN2CCCC(Nc3cccc(F)c3)C2)cc1O (stereo not drawn)	-2.89
COc1ccccc1-c1csc(NC(=O)N2CCN(C)CC2C)n1 (stereo not drawn)	-14.7
Cc1ccccc1C(=O)Nc1ccc([C@H]2OCC(=O)N(C)[C@@H]2CO)cc1	-0.197
O=C(CC1CCc2ccccc21)N1CCC(O)(c2cccnc2)CC1 (stereo not drawn)	-9.82
CCOC(=O)C(C)NC(=O)CCc1ccc(F)cc1 (stereo not drawn)	1.35
CC(C)(O)c1cn(C2CCN(C(=O)CCc3ccncc3)CC2)nn1	-4.73
Cc1noc(C)c1Cc1nc(N(C)C)no1	-12.3
Cc1nnc2n1CCN(C(=O)C(C)Oc1ccc(C#N)cc1)C2 (stereo not drawn)	-12.4
c1ccc(CN2CC[C@@H]3O[C@@H](COCC4CCOCC4)CC[C@@H]32)nc1	-14.4
Cc1nc(CN(C)C2CCN(Cc3ccc4c(c3)CCC4)C2)no1 (stereo not drawn)	-9.34
Cc1cc(C(=O)NCc2cc(C)oc2C)no1	-5.78
CCOc1ncccc1CNC(=O)CN1CCCCCC1=O	19.7
CCCC(NC(=O)c1cc(C)ccc1O)c1nnn[nH]1 (stereo not drawn)	-10.4
Cc1noc(C)c1CN(C)CC(=O)N1CCc2sccc2C1	-1.77
Cc1ccc2nc(C)c(C)c(C(=O)N3CCC4(CCO4)CC3)c2c1	-5.61
Cc1ccc([C@]2(O)CC[C@H]3CN(Cc4cc(C)c(O)c(C)c4)C[C@H]32)nc1	30.6
COCc1nc2ncc3c(=O)n(-c4cccc(OC)c4)ccc3n2n1	27.8
CC(=O)N(Cc1ncc(C(C)C)o1)C1CCN(CC2CCC2)C1 (stereo not drawn)	-3.28
FC(F)(F)c1nc(NC2CCCCC2)c2ccccc2n1	-10.5
COC(=O)c1cc(C2CC2)nc2c(Cl)cnn12	24.9
CCN1CCC2(CN(C(C)=O)CC23CCN(CC2CC2)CC3)C1=O (stereo not drawn)	-5.77
Cc1nc(C(=O)N2CCOC(Cc3ccc(F)cc3)C2)co1 (stereo not drawn)	-3.27

SMILES	cytotoxicity at 70.5 h [%]
Cc1noc(-c2ccc(N(C)Cc3nccs3)nc2)n1	-9.04
O=C1N[C@@H]2CCN(C(=O)N3CCOCC3)[C@@H]2C(=O)N1Cc1ccccc1	-4.61
c1cncc(-c2noc(CN3CCCC3Cn3cccn3)n2)c1 (stereo not drawn)	-3.02
COc1ccccc1CN1CC[C@]2(C[C@H](OC)CO2)C1	-12.6
COCCN1CC(C(=O)NCc2ccnc(-n3cccn3)c2)CC1=O (stereo not drawn)	-6.88
CC(c1ccc2c(c1)OCO2)N1Cc2nc(N(C)C)ncc2C1=O (stereo not drawn)	-0.989
CN(CC(=O)NC(C)(C)C)C(=O)c1cccn1CCc1ccccc1	5.51
Cc1ncncc1-c1ccnc(NC(C)C)n1	-2.82
O=S1(=O)NC2(CCCN(Cc3ccc(Cl)cc3)C2)COc2ccccc21 (stereo not drawn)	22.5
CC(Cc1cccc(F)c1)C(=O)NS(=O)(=O)c1cnn(C)c1 (stereo not drawn)	-1.2
CCc1ncc(C(=O)N(C)CC2Cc3ccccc3O2)cn1 (stereo not drawn)	25.4
COc1cccc(CN2CCC3(CCN(C(=O)[C@H]4CCCO4)CC3)C2)c1	-4.99
Cn1cnc(S(=O)(=O)NCC(C)(O)c2ccc3c(c2)OCO3)c1 (stereo not drawn)	-6.14
CN(Cc1nnc2n1CCC2)C(=O)c1ccc2c(c1)OCCCO2	18.9
CCn1cnnc1CNC(=O)N1CCOC(c2ccc(F)cc2)C1 (stereo not drawn)	-3.32
CC(C)N1CCC2(CCCN(C(=O)c3cncn3C)C2)CC1	-12
Cn1nccc1-c1cnc2n1CCNC21CCN(C(=O)C2(C)CC2)CC1	-9.28
CCC(=O)Nc1ccc(C(C)NC(=O)COC)cc1 (stereo not drawn)	-9.08
Cc1cn[nH]c1C1COCCN1C(=O)c1ccc2[nH]nnc2c1 (stereo not drawn)	-4.19
c1csc(CN2CC[C@H]3C[C@H](c4ccncn4)O[C@@H]3C2)c1	-13.1
CN1CCOC(CNCc2cccc(OCc3ccccn3)c2)C1 (stereo not drawn)	-3.38
O=C(c1cc(F)cc2[nH]cnc12)N1CCCCC1Cn1cccn1 (stereo not drawn)	-7.7
O=C(Cn1nc2ccccc2n1)N1CCCC(O)(CN2CCCC2)C1 (stereo not drawn)	13.9

SMILES	cytotoxicity at 70.5 h [%]
CC(c1ccccn1)N(C)Cc1ccc(-n2cncn2)cc1 (stereo not drawn)	-8.14
Cn1cc(-c2nnn3c2COC(CNCc2ccncc2)C3)cn1 (stereo not drawn)	-2.68
Cc1nc2nc(C)c3c(=O)n(-c4ccn[nH]4)ccc3n2n1	10.9
O=C(c1cc(C2CC2)on1)N1C[C@H]2CC[C@](O)(c3ccccc3F)[C@H]2C1	-0.256
CN(C)[C@@H]1CN(Cc2ccc(O)cc2)C[C@H]1c1cn(C)c2ccccc12	3.53
CCN1CC(C(=O)NCCn2cccc2)CCC1=O (stereo not drawn)	-7.13
O=C1N[C@@H]2CCN(C(=O)C3CC3)[C@@H]2C(=O)N1c1ccc(F)cc1	-13.5
CN1CCN(CC(CC(=O)Nc2ccc(Cl)cc2)C(=O)O)CC1 (stereo not drawn)	-5.4
Cc1cc(C)n(CC2CN(Cc3cccnc3)CCO2)n1 (stereo not drawn)	3.35
c1ccc(OCC2CC3(CCN(Cc4ccncc4)CC3)CO2)nc1 (stereo not drawn)	-18.6
CC(C)C(=O)Nc1cc(C(=O)NC2CC(C)(C)NC(C)(C)C2)nn1C	14.5
CN(Cc1ccco1)Cc1ccccc1CNC(=O)c1cnccn1	-6.66
CC(O)CN(Cc1cccc(C(N)=O)c1)c1ccccc1 (stereo not drawn)	-7.27
CC(=O)N1CCN(C2CCc3ccccc32)CC1 (stereo not drawn)	-2.55
Cc1nc(C2CCCN2CCCNS(C)(=O)=O)no1 (stereo not drawn)	-0.166
Cn1ccnc1CN1CCCC(Cc2ccnc3ccncc23)CC1 (stereo not drawn)	-5.22
Cc1ccoc1-c1nnc(CNCCn2cccn2)o1	31.8
O=C(Nc1ccccc1OC1CCOC1)c1cc[nH]n1 (stereo not drawn)	16.6
CN(C)CCN(Cc1ccccn1)Cc1ccnn1C1CCCCO1 (stereo not drawn)	-2.87
COCCOc1cccc(C(=O)N2CCCC(n3ccnc3C)C2)c1 (stereo not drawn)	-2.47
CCN(C)S(=O)(=O)NCC1CCN(Cc2ccccc2C)CC1	-9.65
c1cnc(N2CCO[C@H]3CN(Cc4c[nH]cn4)C[C@H]32)cn1	-5.79
CN(C)C(=O)c1cnc2n1CCN(Cc1ccncc1)C2	19.9

SMILES	cytotoxicity at 70.5 h [%]
O=S(=O)(c1ccccc1)N1CCC2(CCCN2Cc2cccc(F)c2)C1 (stereo not drawn)	6.89
CC(C)Nc1cc(N2CCCC3(CN(C)C(=O)O3)C2)ncn1 (stereo not drawn)	15
Cc1cnc(N2C[C@H]3CCN(CC4CC4)C[C@H]3C2)nc1	9.39
Cc1cc(C)n(CC2CCCCN2CC(=O)Nc2cccnc2)n1 (stereo not drawn)	17.8
CN1CCC(c2n[nH]cc2-c2ccnc(N)c2)C1 (stereo not drawn)	0.193
CC(C)=CCN1CCNC(=O)C1CC(=O)N1CCc2sccc2C1 (stereo not drawn)	-3.67
O=C(Cn1cnnn1)NC(c1ccccc1)c1ccc2c(c1)CCCO2 (stereo not drawn)	24.4
Cc1c(OCC(=O)NCc2ccccc2Cl)c(=O)ccn1C	-23.2
Cc1ccc(CNCC2CCCN2c2cccnn2)s1 (stereo not drawn)	4.46
Cc1cccc(C(=O)NCCS(=O)(=O)Cc2ccccc2)c1	-8.95
Cc1nn(C)c(C)c1C1COCCN1C(=O)CSC(C)(C)C (stereo not drawn)	-18.7
Cc1ccc(Cn2cc(Br)c(NS(C)(=O)=O)n2)cc1	-5.3
COCC(=O)N1CCN(c2ccc(C(=O)OC)cc2)CC1C (stereo not drawn)	20.1
CCOc1ccc(Cl)c(C(=O)NCCS(N)(=O)=O)n1	22
O=C(C1CC=CC1)N1Cc2nccn2CC(CN2CCCC2)C1 (stereo not drawn)	-4.01
CNC(=O)c1cccc(CN2CCN(c3ccncc3)CC2)c1	0.282
CSc1ccccc1C(=O)N1C[C@@H](N(C)C)[C@H](c2ccc(C)cc2)C1	-1.92
CC(C)c1nnc2n1CCN(C(=O)c1ccc3c(c1)CCC3)C2	0.826
Cc1n[nH]c(C)c1CCNC(=O)C1CCCN(Cc2ccco2)C1 (stereo not drawn)	9.52
Fc1ccc(N2CCN(CCCc3cn[nH]c3)CC2)cc1	12
Cc1cnc(CN2CCC(N(C)Cc3nnc(C4CC4)n3C)C2)cn1 (stereo not drawn)	-11
